Experimental data published in patent US20100179158A1, “INHIBITORS OF CYCLIC AMP PHOSPHODIESTERASES” (priority 2007, published 2010).

Columns and labels:
[1] = target: T1, PDE4A1 (Mus musculus, UniProt O89084); experiment: Fission yeast 5FOA growth assay, strain expressing PDE4A1; type: cell-based, murine; conditions: 5FOA growth screen; for 2 Assay (2 uM), PDE 4A1: 2 uM compound; for 1 Assay (20 uM), PDE 4A1: 20 uM compound
T1 construct: targets used in the assays are full-length proteins (as opposed to simply the catalytic domain); expressed in transfected cells; host or cells: Schizosaccharomyces pombe, gene integrated at the cgs2 locus
T1 sequence (O89084 1-610 isoform O89084-2): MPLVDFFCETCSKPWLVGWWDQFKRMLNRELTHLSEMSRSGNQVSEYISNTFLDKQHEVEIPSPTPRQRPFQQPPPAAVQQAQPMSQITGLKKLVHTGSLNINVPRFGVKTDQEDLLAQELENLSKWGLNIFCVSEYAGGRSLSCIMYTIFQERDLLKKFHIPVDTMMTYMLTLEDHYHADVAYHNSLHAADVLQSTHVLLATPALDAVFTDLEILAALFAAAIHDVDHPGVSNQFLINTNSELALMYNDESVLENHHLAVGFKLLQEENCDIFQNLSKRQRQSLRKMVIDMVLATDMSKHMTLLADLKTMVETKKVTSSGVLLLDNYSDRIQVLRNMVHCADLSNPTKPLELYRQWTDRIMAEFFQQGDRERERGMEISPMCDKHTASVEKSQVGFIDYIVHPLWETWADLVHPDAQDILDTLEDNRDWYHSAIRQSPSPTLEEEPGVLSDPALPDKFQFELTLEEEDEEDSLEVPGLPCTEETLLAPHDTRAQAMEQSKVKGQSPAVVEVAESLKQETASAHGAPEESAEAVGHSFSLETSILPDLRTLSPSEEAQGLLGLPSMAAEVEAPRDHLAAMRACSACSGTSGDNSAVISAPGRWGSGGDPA
Protocol: High throughput drug screens were carried out at the Broad Institute's Chemical Biology Program screening facility (Broad Institute, Cambridge, Mass.). Depending upon the strain, cultures were pregrown to exponential phase in EMM complete medium containing from 0.5 to 2.5 mM cAMP to repress fbp1-ura4 transcription. […] Starting cell concentrations ranged from 0.5×10^5 to 4×10^5 cells/ml depending on the screening strain. […] Other positive control dishes contained 5 mM cAMP in the 5FOA medium. Cultures were grown for 48 hours at 30° C., sealed in an airtight container with moist paper towels to prevent evaporation. Optical densities (OD600) of cultures were measured using a microplate reader. Bioinformatic analysis of the results to determine composite Z scores was performed as previously described^30, 31.
Cells were pregrown in EMM medium [MP Biomedicals (Solon, OH), 3% glucose, filter-sterilized to avoid carmelization, which would introduce variability into the optical density of the medium] containing from 0 mM to 2.5 mM cAMP (or either 0.5 mM or 1.0 mM cGMP). This was to repress expression of the fbp1-ura4 reporter prior to exposure of cells to 5FOA medium. Cells were grown at 30° C. to exponential phase (approximately 10^7 cells/ml). […] Starting cell concentrations ranged from 0.5×10^5 to 4×10^5 cells/ml depending on the screening strain. […] Other positive control dishes contained 5 mM cAMP in the 5FOA medium for PDEs that lack appropriate control compounds. Cultures were grown for 48 hours at 30° C., sealed in an airtight container with moist paper towels to prevent evaporation. Optical densities (OD600) of cultures were measured using a microplate reader. Bioinformatic analysis of the results to determine composite Z scores was performed as previously described (1, 3).

[2] = target: T2, PDE4D3 (Homo sapiens, UniProt Q08499); experiment: Fission yeast 5FOA growth assay, strain expressing PDE4D3; type: cell-based; conditions: 2 uM compound, 5FOA growth screen
T2 construct: targets used in the assays are full-length proteins (as opposed to simply the catalytic domain); expressed in transfected cells; host or cells: Schizosaccharomyces pombe, gene integrated at the cgs2 locus
T2 sequence (Q08499 1-673 isoform Q08499-2): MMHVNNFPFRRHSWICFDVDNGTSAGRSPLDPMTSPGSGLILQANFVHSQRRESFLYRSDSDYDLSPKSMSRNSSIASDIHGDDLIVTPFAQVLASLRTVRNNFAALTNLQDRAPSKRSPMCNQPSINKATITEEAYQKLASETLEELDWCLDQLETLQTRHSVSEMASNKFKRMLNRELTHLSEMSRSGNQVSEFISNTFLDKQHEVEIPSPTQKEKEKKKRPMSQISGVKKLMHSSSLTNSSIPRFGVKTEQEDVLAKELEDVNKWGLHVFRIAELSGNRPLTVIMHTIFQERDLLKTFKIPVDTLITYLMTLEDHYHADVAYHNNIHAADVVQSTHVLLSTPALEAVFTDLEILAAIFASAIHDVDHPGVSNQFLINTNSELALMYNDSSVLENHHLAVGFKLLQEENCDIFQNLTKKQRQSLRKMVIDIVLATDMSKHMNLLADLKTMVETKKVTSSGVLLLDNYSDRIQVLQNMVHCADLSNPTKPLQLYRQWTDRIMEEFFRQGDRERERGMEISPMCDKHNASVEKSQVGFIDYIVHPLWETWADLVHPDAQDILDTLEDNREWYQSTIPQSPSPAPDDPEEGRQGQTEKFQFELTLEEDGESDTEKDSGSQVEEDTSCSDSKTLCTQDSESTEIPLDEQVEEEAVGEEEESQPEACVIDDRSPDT
Protocol: Cells were pregrown in EMM medium [MP Biomedicals (Solon, OH), 3% glucose, filter-sterilized to avoid carmelization, which would introduce variability into the optical density of the medium] containing from 0 mM to 2.5 mM cAMP (or either 0.5 mM or 1.0 mM cGMP). This was to repress expression of the fbp1-ura4 reporter prior to exposure of cells to 5FOA medium. Cells were grown at 30° C. to exponential phase (approximately 10^7 cells/ml). Cells were collected by centrifugation and resuspended in 5FOA medium, and 25 μl were transferred to 384-well microtiter dishes (untreated, with flat clear bottoms) that had been pre-filled with 25 μl 5FOA medium and pre-pinned with 100 nl of compounds (stock solutions were generally 10 mM). Starting cell concentrations ranged from 0.5×10^5 to 4×10^5 cells/ml depending on the screening strain. […] Other positive control dishes contained 5 mM cAMP in the 5FOA medium for PDEs that lack appropriate control compounds. Cultures were grown for 48 hours at 30° C., sealed in an airtight container with moist paper towels to prevent evaporation. Optical densities (OD600) of cultures were measured using a microplate reader. Bioinformatic analysis of the results to determine composite Z scores was performed as previously described (1, 3).

[3] = target: T1, PDE4A1; experiment: cAMP assay in yeast strain expressing PDE4A1; type: cell-based, murine
[4] = target: T3, PDE4D2 (Homo sapiens, UniProt Q08499); experiment: cAMP assay in yeast strain expressing PDE4D2; type: cell-based
T3 construct: targets used in the assays are full-length proteins (as opposed to simply the catalytic domain); expressed in transfected cells; host or cells: Schizosaccharomyces pombe
T3 sequence (Q08499 303-809): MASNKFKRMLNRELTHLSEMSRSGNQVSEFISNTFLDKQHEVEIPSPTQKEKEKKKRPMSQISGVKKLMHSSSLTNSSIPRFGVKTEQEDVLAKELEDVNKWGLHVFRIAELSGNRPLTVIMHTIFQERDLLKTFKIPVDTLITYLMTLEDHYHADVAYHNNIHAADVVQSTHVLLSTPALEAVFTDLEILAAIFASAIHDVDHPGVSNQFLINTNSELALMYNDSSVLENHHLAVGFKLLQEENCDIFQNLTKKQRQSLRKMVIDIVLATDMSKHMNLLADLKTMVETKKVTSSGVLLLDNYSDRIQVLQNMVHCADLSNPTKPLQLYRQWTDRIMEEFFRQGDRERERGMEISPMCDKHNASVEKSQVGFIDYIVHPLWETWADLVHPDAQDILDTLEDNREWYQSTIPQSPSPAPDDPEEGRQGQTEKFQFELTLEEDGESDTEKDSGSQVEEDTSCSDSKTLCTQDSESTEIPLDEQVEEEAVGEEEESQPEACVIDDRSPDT

[5] = target: T1, PDE4A1; experiment: IC50 on PDE4A1; type: biochemical, murine; conditions: read-out: IC50, PDE 4A1
[6] = target: T2, PDE4D3; experiment: IC50 on PDE4D3; type: biochemical; conditions: read-out: IC50, PDE 4D3
[7] = tested on: PDE4A, PDE4B, PDE4D, PDE7A; experiment: Overall PDE inhibitor profile from the yeast assays (table footnotes, summary); type: cell-based
Summary of the method: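 Fission yeast strains expressing full-length PDEs with an fbp1-ura4 reporter, pregrown in EMM with 0–2.5 mM cAMP (or 0.5 or 1.0 mM cGMP), then grown 48 h at 30° C in 5FOA medium with 100 nl of compound pinned per well (10 mM stocks). Growth read as OD600; composite Z scores calculated.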

Structure (SMILES)	2 Assay (2 uM), PDE 4A1 [1]	1 Assay (20 uM), PDE 4A1 [1]	2 Assay (2 uM), PDE 4D3 [2]	cAMP Response (% rolipram), PDE 4A1 [3] [% rolipram]	cAMP Response (% rolipram), PDE 4D2 [4]	IC50 [5] [nM]	IC50 [6] [nM]	PDE inhibitor profile in words (table footnote / summary) [7]
Cc1ccc2c(c1)c1nc3ccccc3nc1n2C(C)C [Compound 41]		106.90				650	200	
COC(=O)C1=C(C)N(c2ccccc2F)C(=O)/C1=C\c1cccc(OC)c1O [2008, C21]		18.97 ND ND ND ND						(2) Strong PDE4A, 4B inhibitor
COC(=O)C1=C(C)N(c2ccc(C(C)C)cc2)C(=O)/C1=C\c1cccs1 [2008, O19]		0.80 ND ND ND ND						(1) No activity under conditions used
COC(=O)C1=C(C)N(c2ccccc2)/C(=C/c2cccs2)C1=O [2008, K19]		−0.46 ND ND ND ND						(1) No activity under conditions used

Now from value to molecule, other results behind:

2 Assay (2 uM), PDE 4A1 [1]	1 Assay (20 uM), PDE 4A1 [1]	2 Assay (2 uM), PDE 4D3 [2]	cAMP Response (% rolipram), PDE 4A1 [3] [% rolipram]	cAMP Response (% rolipram), PDE 4D2 [4]	IC50 [5] [nM]	IC50 [6] [nM]	Structure (SMILES)	PDE inhibitor profile in words (table footnote / summary) [7]
17.41	64.18	0.00	78.00	ND ND ND 11.00 ND % rolipram	100	100	COC(=O)C1=C(C)N(c2ccccc2Cl)C(=O)/C1=C\c1cccs1 [Compound 27]	(3) Strong PDE4A, 4B inhibitor
27.01	98.84	42.32	54.00	ND ND ND 34.00 ND % rolipram			COC(=O)C1=C(C)N(C2CCCCC2)C(=O)/C1=C\c1cccs1 [Compound 22]	(4) Strong PDE4A, 4B, 7 inhibitor; Weak PDE4D inhibitor
